Entries after “also recorded” stand apart in the source; their conditions may differ. Where two headings read alike, the source gives them in different places.
Key:
[1] = cited from earlier work
histone H4 = experiment: Histone H4 hyperacetylation Western blot in treated embryos; format: in vivo, zebrafish; conditions: 24 hpf embryos, 6 hours; 3 μM PTBA, 25 μM PBA, 200 nM TSA
Procedure: It was next determined whether the HDACi function of PTBA was quantifiable in vivo. 24 hpf embryos were treated with 3 μM PTBA, 25 μM PBA, or 200 nM TSA for 6 hours. Protein extracts were prepared and immunoblotted with an anti-hyperacetylated histone H4 antibody. […] Furthermore, increasing the compound concentration caused a corresponding increase in hyperacetylation (FIG. 21).
SDS-PAGE and Western blotting were performed as described previously with some modifications (Noel, E. S. et al. Organ-specific requirements for Hdac1 in liver and pancreas formation. Dev Biol 322, 237-250, (2008)). Proteins were separated on 18% SDS-PAGE gels. Membranes were incubated at 4° C. overnight with 1:1000 anti-hyperacetylated histone H4 antibody (06-946, Millipore) or 1:1000 anti-α-tubulin antibody (Sigma-Aldrich) in PBT containing 5% nonfat milk.

HDAC = conditions: 5 mM; cited from earlier work
zebrafish embryos = experiment: Phenotypic screen for edema and survival in zebrafish larvae at 72 hpf; conditions: for larvae with edemic phenotype / pericardial edema by 72 hpf: 3 μM PTBA; for larvae with edemic phenotype / pericardial edema by 72 hpf / death by 72 hpf: 25 μM PBA, 200 nM TSA; for death by 72 hpf: n=90; for Dead / Edemic 1 (E1) / Edemic 2 (E2) / Edemic 3 (E3) / Wild-type (WT): number of larvae (of 36), 3 μM from 2 hpf, scored at 72 hpf
Procedure, shortened: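 Embryos (5/well in primary screen; 12–30 per group otherwise) exposed from 2 hpf in E3 medium with 0.5% DMSO, 10 μM in screen or stated concentrations, 28.5 °C for 70 h. At 72 hpf, edema scored by phenotype classification (dominant phenotype in ≥4/5 embryos in screen); survival vs 0 μM by two-tailed Fisher's exact test (p<0.05).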

human HDACs = experiment: Fluorescence histone deacetylation assay with HeLa cell nuclear extract; format: biochemical
Procedure: To evaluate this in vitro, the deacetylation of a fluorescent peptide substrate was measured in the presence of human HDACs.
In vitro HDAC activity assays were performed using a fluorescence HDAC assay kit (Active Motif) according to the manufacturer's instructions. For maintaining compound solubility at 5 mM, the final DMSO concentration in all assay wells was increased to 5%. Fluorescence was detected using an M5 Plate Reader ([…])

renal progenitor cells = experiment: In situ hybridization for lhx1a expression in 10-somite embryos (renal progenitor cell expansion); format: in vivo; conditions: for concentration producing an expansion of lhx1a expression consistent with 3 μM PTBA: concentration-response; for Lhx1a expansion caused by analog treatment, 800 nM: 800 nM from 2 hpf; for EC50: first pass EC50 from percent expansion (Excel trendline), average where several experiments
Procedure, shortened: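 Zebrafish embryos treated with compound, then colorimetric whole-mount in situ hybridization (65° C) for lhx1a mRNA at 10 somites. Embryos with expanded kidney field counted manually as percent of total. EC50 taken as 50% point of percent-expansion trendline; compounds also classed effective, partial or ineffective versus PTBA at matched concentration.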

[2] = system: mesodermal markers myod1, fli1a, and ntla; experiment: In situ hybridization for the mesodermal markers myod1, fli1a and ntla in 10-somite embryos; format: in vivo, zebrafish
Procedure: PTBA was synthesized as described below. Hydroxyurea and aphidicolin were obtained from Sigma-Aldrich.
In situ hybridization and immunocytochemistry: In situ hybridization was performed as previously described with some modifications.142 Hybridization temperature was 65° C. Embryos were blocked in 2% blocking reagent (Roche) with 5% sheep serum in MAB (100 mM maleic acid and 150 mM NaCl [pH 7.5]). Whole-mount immunocytochemistry with 1:25 mouse anti-α6F antibody (Developmental Studies Hybridoma Bank) and 1:100 Cy3 secondary antibody (Jackson ImmunoResearch) was performed as described previously.108 Embryos were embedded in JB-4 for sectioning per the manufacturer's instructions (Polysciences), sectioned at 5 μm, and mounted with Cytoseal 60 (Richard-Allan Scientific).

CD1 mice = experiment: Folic acid-induced AKI in CD1 mice; format: in vivo, mouse; conditions: daily IP from 24 hrs after folic acid, 15 days
Procedure: FIG. 42 are photomicrographs showing the results of an AKI model using folic acid-induced injury. Folic acid is administered to CD1 mice (n=6/group) intraperitoneally (IP) at […] in 0.3M NaHCO3. Compound UPHD-00022 was injected daily IP at […] in 30% PEG300 vehicle starting 24 hrs after folic acid treatment. Kidney tissue was stained using Trichrome and Sirus Red stained after 15 days. Blue in trichrome and the red in sirus red indicates fibrotic (scar) tissue.

Acetylated Histone H3 K9 = experiment: Renal histone acetylation after single S/C injection in CD1 mice; format: in vivo, mouse; conditions: 3.4 mg/kg single SC injection, 24 hours
Procedure: PTBA analogs are used at a dose range determined from comparative dose efficacy with m4PTB in the secondary zebrafish screen. […] Preliminary studies compared the effect of Trichostatin A (an established, but toxic HDACi) at an effective dose in the zebrafish screen ([…]) with an equivalent dose of m4PTB (0.8 mM), and then ×2 and ×4 dose increments (molar concentration in vivo based on estimate uniform distribution relative to body mass of water). […] Studies may be performed on 3 mice/group.

[3] = system: proximal convoluted tubule cells; experiment: Renal cell proliferation post gentamycin-induced AKI in zebrafish larvae; format: in vivo; conditions: 4 μM added 2 days post injection of gentamicin, EdU at 5 days post injection
Procedure: FIG. 43A is a graph showing the results of an AKI model using gentamycin-induced injury. AKI is generated as per a recent publication, Cianciolo Cosenitino, C., et al. ((2010) Intravenous microinjections of zebrafish larvae to study acute kidney injury. JoVE August 4 (42), pii: 2079. doi: 10.3791/2079). Four micromolar m4PTB (UPHD-00025) was added to the zebrafish E3 media in 0.5% DMSO at 2 days post injection of gentamicin and the larvae are scored daily for four days (6 days post injection) as alive or dead, with the final data tallied on day 6 post injection FIG. 43B.
Proliferation of renal cells was examined post AKI for m4PTB in zebrafish larvae (FIG. 44). AKI is generated as above with gentamycin, essentially as described in Example 11. Four μM m4PTB was added 2 days post injection of gentamicin. Zebrafish larvae at 5 days post injection were treated for 1 hour with the thymidine analogue EdU (10 milimolar), which incorporates into dividing (proliferating cells) while the larvae are in the zebrafish E3 media. The larvae where then fixed and processed for histology to count the number of proliferating cells in the proximal convulted tubule (as marked by the antibody 3G8). The number of proliferating cells was divided by the total number of cells in the proximal convoluted tubule to generate the percent of proliferation also known as the proliferation index as shown in FIG. 44.

[4] = 3 μM from 2 hpf, 10-somite embryos
[5] = 100 nM from 2 hpf, 10-somite embryos
[6] = 200 nM from 2 hpf, 10-somite embryos
[7] = 1.5 μM from 2 hpf, 10-somite embryos
[8] = Danio rerio, 1.5 μM from 2 hpf, 10-somite embryos, read-out: lhx1a expansion, percent of treated embryos
[9] = Danio rerio, percent of embryos with expanded kidney field, 1.5 μM, read-out: Expansion of Cells (including repeats* and recounts**) 1.5 μM
[10] = Danio rerio, percent of embryos with expanded kidney field, 3 μM, read-out: Expansion of Cells (including repeats* and recounts**) 3 μM

SMILES	histone H4 hyperacetylation (histone H4)	larvae with edemic phenotype / pericardial edema by 72 hpf (zebrafish embryos) [%]	death by 72 hpf (zebrafish embryos) [%]	Dead (zebrafish embryos)	Edemic 1 (E1) (zebrafish embryos)	Edemic 2 (E2) (zebrafish embryos)	Edemic 3 (E3) (zebrafish embryos)	Wild-type (WT) (zebrafish embryos)	Lhx1a expansion caused by analog treatment, 3 μM (renal progenitor cells; [4])	concentration producing an expansion of lhx1a expression consistent with 3 μM PTBA (renal progenitor cells; 10-somite embryos) [µM]	Lhx1a expansion caused by analog treatment, 800 nM (renal progenitor cells; 10-somite embryos)	Lhx1a expansion caused by analog treatment, 1.5 μM (renal progenitor cells; [7])	responders at 1.5 µM (renal progenitor cells; [8]) [%]	responders at 1.5 µM (renal progenitor cells; [9]) [%]	responders at 3 µM (renal progenitor cells; [10]) [%]	EC50 (renal progenitor cells; Danio rerio) [nM]	further results
O=C(O)CCCc1ccccc1 [Buphenyl]																	half-life (t1/2) ([1]; following administration): ~1 h; bioavailability ([1]; taken orally): about 80%
O=C(O)CCCc1ccccc1 [PBA, 4-phenylbutanoic acid, reference compound]	Histone H4 hyperacetylation was observed	23	8	0	0	0	0	36	−	25							HDAC activity, percent of the control value (HDAC): 19%; HDAC activity elicited by 10 μg HeLa extract, percent of the control value (human HDACs; 5 mM compound): 30%
CC(/C=C/C(=O)NO)=C\[C@@H](C)C(=O)c1ccc(N(C)C)cc1 [TSA, trichostatin A, reference compound]	Histone H4 hyperacetylation was observed	100	61	36	0	0	0	0		0.2							normal ntla expression disrupted, percent of treated embryos ([2]; 200 nM): 86%; myod1 expression decreased, percent of treated embryos ([2]; 3 μM PTBA (slightly decreased), 25 μM PBA, 200 nM TSA): 100%; fli1a expression decreased, percent of treated embryos ([2]; 25 μM PBA, 200 nM TSA): 95%; treated 72 hpf larvae killed (zebrafish embryos; 300 nM): greater than 90%; HDAC activity (human HDACs; 1 μM TSA, all input levels of nuclear extract): completely blocked activity; Lhx1a expansion caused by analog treatment, 100 nM (renal progenitor cells; [5]): +; lhx1a expansion, percent of treated embryos (renal progenitor cells; [5]): 97%; Lhx1a expansion caused by analog treatment, 200 nM (renal progenitor cells; [6]): +; lhx1a expansion, percent of treated embryos (renal progenitor cells; [6]): 100%; lethality before reaching 10 somites (renal progenitor cells; 400 nM): died before reaching 10 somites; treated embryos killed (renal progenitor cells; 800 nM): lethal; lethality before the 10-somite stage (renal progenitor cells; 1.5 μM): lethal; lethality before the 10-somite stage (renal progenitor cells; 3 μM): killed all treated embryos
COC(=O)CCCSc1ccc(OC)cc1 [UPHD-00022, methyl 4-[(4-methoxy-phenyl)sulfanyl]butanoate]				1	2	24	9	0	+		+	+	91	83	85	1400	Lhx1a expansion caused by analog treatment, 400 nM (renal progenitor cells; 400 nM from 2 hpf, 10-somite embryos): +/−; responders at 0.8 µM (renal progenitor cells; Danio rerio, percent of embryos with expanded kidney field, 800 nM, read-out: Expansion of Cells (including repeats* and recounts**) 800 nM): 39%; responders at 0.4 µM (renal progenitor cells; Danio rerio, read-out: lhx1a expansion, percent of treated embryos, 400 nM from 2 hpf, 10-somite embryos): 29%; responders at 0.8 µM (renal progenitor cells; Danio rerio, read-out: lhx1a expansion, percent of treated embryos, 800 nM from 2 hpf, 10-somite embryos): 57%; renal fibrosis (Trichrome and Sirus Red) (CD1 mice): reduction in fibrosis
COC(=O)CCCSc1ccccc1 [UPHD-00025, methyl 4-(phenylsulfanyl)butanoate (m4PTB)]				8	0	2	26	0	+		+/−	+	89	89	97	432	renal Ac-H3 K9 induction (Acetylated Histone H3 K9): maximal expression of Ac—H3 K9; also recorded: maximal induction of H3K9A; renal cell proliferation (proliferation index) [3]: significantly increased; responders at 3 µM (renal progenitor cells; Danio rerio, 3 μM from 2 hpf, 10-somite embryos, read-out: lhx1a expansion, percent of treated embryos): 100%; responders at 0.2 µM (renal progenitor cells; Danio rerio, percent of embryos with expanded kidney field, 200 nM, read-out: Expansion of Cells (including repeats* and recounts**) 200 nM): 33%
